Reference: US20040034022A1, “Polymorphic forms/hydrates of n-[4-(3-chloro-4-fluorophenylamino)-7-(3-morpholin-4-ylpropoxy)-quinazolin-6-yl]-acrylamide dihydrochloride” (priority 2000, published 2004)
Where a name gives a salt, the structure may show the parent alone. Blank lines part the entries; values can stand above or below the compound they belong to.

Assay: Temperature stress experiments: thermal stability of the solid forms, purity by HPLC
Assay type: physicochemical
Conditions: for HPLC Purity Start: solid form before temperature stress; for HPLC Purity: solid
From the text: Temperature Stress Experiments For the investigation of the thermal stability, the solid forms A, B and M are heated in open test tubes (l: 110 mm, d: 5 mm) or in test tubes closed by means of a glass stamp in an oil bath at temperatures and for a period of time as given in the Table. Subsequently, the purity of the remaining products is investigated by means of HPLC methods (column: LunaRP18 (25×0.46 cm); mobile phase: acetonitrile:methanol: 0.02M aq. ammonium acetate:triethylamine (55:5:40:0.05). (s): test tube with glass stamp

HPLC Purity Start (listed as A): 99.28 rel % | HPLC Purity (16 hr, 100° C., then 8 hr, 150° C., (s): test tube with glass stamp, listed as A): 23.45 (s) rel % | HPLC Purity (16 hr, 100° C., then 8 hr, 150° C., open test tube, listed as A): 25.28 rel % | HPLC Purity (7 d, 80° C., (s): test tube with glass stamp, listed as A): 99.02 (s) rel % | HPLC Purity (7 d, 80° C., open test tube, listed as A): 97.51 rel %
SMILES: C=CC(=O)Nc1cc2c(Nc3ccc(F)c(Cl)c3)ncnc2cc1OCCCN1CCOCC1 [Form A, N-[4-(3-chloro-4-fluorophenylamino)-7-(3-morpholin-4-ylpropoxy)-quinazolin-6-yl]-acrylamide Dihydrochloride Form A]

HPLC Purity Start (listed as B): 99.77 rel % | HPLC Purity (16 hr, 100° C., then 8 hr, 150° C., (s): test tube with glass stamp, listed as B): 75.28 (s) rel % | HPLC Purity (16 hr, 100° C., then 8 hr, 150° C., open test tube, listed as B): 75.32 rel % | HPLC Purity (7 d, 80° C., (s): test tube with glass stamp, listed as B): 84.40 (s) rel % | HPLC Purity (7 d, 80° C., open test tube, listed as B): 89.39 rel %
SMILES: C=CC(=O)Nc1cc2c(Nc3ccc(F)c(Cl)c3)ncnc2cc1OCCCN1CCOCC1 [Form B, N-[4-(3-chloro-4-fluorophenylamino)-7-(3-morpholin-4-ylpropoxy)-quinazolin-6-yl]-acrylamide Dihydrochloride Form B]

stability towards the heating of the solid substance (heating at 80° C. or 150° C., in comparison to the forms A or B): more stable form | HPLC Purity Start (listed as M): 99.49 rel % | HPLC Purity (16 hr, 100° C., then 8 hr, 150° C., (s): test tube with glass stamp, listed as M): 99.43 (s) rel % | HPLC Purity (16 hr, 100° C., then 8 hr, 150° C., open test tube, listed as M): 99.43 rel % | HPLC Purity (8 d, 80° C., (s): test tube with glass stamp): 99.61 (s) rel % | HPLC Purity (8 d, 80° C., open test tube): 99.62 rel %
SMILES: C=CC(=O)Nc1cc2c(Nc3ccc(F)c(Cl)c3)ncnc2cc1OCCCN1CCOCC1 [Form M, N-[4-(3-chloro-4-fluorophenylamino)-7-(3-morpholin-4-ylpropoxy)-quinazolin-6-yl]-acrylamide Dihydrochloride Form M]
